Reference: ChEMBL document CHEMBL5154810, “Development of Potent Immune Modulators Targeting Stimulator of Interferon Genes Receptor” (J Med Chem, 2022)
Calls of active or inactive are those of the source. The calls are words filed in the database; no cut-off is given here.

Columns and labels:
[1] = AUClast in BALB/c mouse at 3 mg/kg, iv by LC-MS/MS analysis; format: ADME, organism-based; set-up: time 0 - last, dose 3 mg/kg, route iv; conditions: in vivo
Mus musculus [2] = assay: Upregulation of IL-6 in BALB/c mouse serum at 1.5 mg/kg, iv measured after 4 hrs by ELISA; format: functional, organism-based
Cytochrome P450 2C9 = Cytochrome P450 2C9 (Homo sapiens, UniProt P11712); assay: Inhibition of CYP2C9 in human liver microsomes tolbutamide as cocktail probe substrate preincubated for 5 mins followed by NADPH addition and measured after 30 mins by HPLC-MS/MS analysis; format: ADME, Microsome
Sequence of Cytochrome P450 2C9 (P11712 whole entry): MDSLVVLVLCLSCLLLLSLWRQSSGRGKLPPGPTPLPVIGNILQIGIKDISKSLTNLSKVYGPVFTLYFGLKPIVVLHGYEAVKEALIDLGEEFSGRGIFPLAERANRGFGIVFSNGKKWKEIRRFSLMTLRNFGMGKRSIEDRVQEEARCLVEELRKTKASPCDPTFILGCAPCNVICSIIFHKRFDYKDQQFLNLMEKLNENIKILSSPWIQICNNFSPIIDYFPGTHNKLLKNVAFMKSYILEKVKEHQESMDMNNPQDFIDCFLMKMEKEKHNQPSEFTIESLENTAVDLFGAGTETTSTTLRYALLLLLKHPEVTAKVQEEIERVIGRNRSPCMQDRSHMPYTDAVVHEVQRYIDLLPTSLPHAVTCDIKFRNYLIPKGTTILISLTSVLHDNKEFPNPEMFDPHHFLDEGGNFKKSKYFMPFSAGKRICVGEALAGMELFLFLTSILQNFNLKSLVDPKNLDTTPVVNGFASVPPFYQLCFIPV

Mus musculus [3] = assay: Upregulation of IFN-beta in BALB/c mouse serum at 1.5 mg/kg, iv measured after 4 hrs by ELISA; format: functional, organism-based
[4] = target: T1, Stimulator of interferon genes protein (Homo sapiens, UniProt Q86WV6); assay: Binding affinity to recombinant human His-tagged STING by measuring fluorescent signals in the presence of d2 labelled STING wild type ligand by HTRF based microplate reader analysis
T1 sequence (Q86WV6 whole entry): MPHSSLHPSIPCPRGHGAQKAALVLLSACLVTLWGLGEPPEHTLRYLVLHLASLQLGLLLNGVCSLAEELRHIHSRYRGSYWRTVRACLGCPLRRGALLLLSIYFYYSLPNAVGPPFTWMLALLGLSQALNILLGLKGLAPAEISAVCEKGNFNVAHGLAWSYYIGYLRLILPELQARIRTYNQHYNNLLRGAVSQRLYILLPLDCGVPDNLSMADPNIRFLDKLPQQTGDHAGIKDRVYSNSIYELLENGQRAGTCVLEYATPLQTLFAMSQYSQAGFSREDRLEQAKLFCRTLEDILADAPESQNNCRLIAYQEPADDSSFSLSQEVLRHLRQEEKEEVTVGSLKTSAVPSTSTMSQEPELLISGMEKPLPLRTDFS

Cytochrome P450 2D6 = Cytochrome P450 2D6 (Homo sapiens, UniProt P10635); assay: Inhibition of CYP2D6 in human liver microsomes using dextromethorphan as cocktail probe substrate preincubated for 5 mins followed by NADPH addition and meaured after 30 mins by HPLC-MS/MS analysis; format: ADME, Microsome
[5] = Terminal half life in BALB/c mouse at 3 mg/kg, iv by LC-MS/MS analysis; format: ADME, organism-based; conditions: in vivo, read-out: beta t1/2 (converted)
[6] = target: T1, Stimulator of interferon genes protein; assay: Binding affinity to STING in human THP-1 cells assessed as thermal stabilization at 48 to 55 degC at 100 nM incubated for 4 hrs by western blotting based CETSA assay; format: cell-based; conditions: filed as activator
CT26 [7] = assay: Antitumor activity against CT26 cells injected in BALB/c syngenic mouse model assessed as tumor growth inhibition at 1.5 mg/kg, iv measured after 17 days; format: functional; conditions: CT26, 408 h, time 17 day, read-out: TGI
[8] = target: T1, Stimulator of interferon genes protein; assay: Activation of STING pathway in human THP-1 cells assessed as increase in TBK1 phosphorylation at 2 nM incubated for 6 hrs by Western blotting analysis; format: cell-based; conditions: filed as activator
[9] = target: Voltage-gated inwardly rectifying potassium channel KCNH2 (Homo sapiens, UniProt Q12809); assay: Inhibition of hERG by patch clamp assay; format: toxicity
Sequence of Voltage-gated inwardly rectifying potassium channel KCNH2 (Q12809 whole entry): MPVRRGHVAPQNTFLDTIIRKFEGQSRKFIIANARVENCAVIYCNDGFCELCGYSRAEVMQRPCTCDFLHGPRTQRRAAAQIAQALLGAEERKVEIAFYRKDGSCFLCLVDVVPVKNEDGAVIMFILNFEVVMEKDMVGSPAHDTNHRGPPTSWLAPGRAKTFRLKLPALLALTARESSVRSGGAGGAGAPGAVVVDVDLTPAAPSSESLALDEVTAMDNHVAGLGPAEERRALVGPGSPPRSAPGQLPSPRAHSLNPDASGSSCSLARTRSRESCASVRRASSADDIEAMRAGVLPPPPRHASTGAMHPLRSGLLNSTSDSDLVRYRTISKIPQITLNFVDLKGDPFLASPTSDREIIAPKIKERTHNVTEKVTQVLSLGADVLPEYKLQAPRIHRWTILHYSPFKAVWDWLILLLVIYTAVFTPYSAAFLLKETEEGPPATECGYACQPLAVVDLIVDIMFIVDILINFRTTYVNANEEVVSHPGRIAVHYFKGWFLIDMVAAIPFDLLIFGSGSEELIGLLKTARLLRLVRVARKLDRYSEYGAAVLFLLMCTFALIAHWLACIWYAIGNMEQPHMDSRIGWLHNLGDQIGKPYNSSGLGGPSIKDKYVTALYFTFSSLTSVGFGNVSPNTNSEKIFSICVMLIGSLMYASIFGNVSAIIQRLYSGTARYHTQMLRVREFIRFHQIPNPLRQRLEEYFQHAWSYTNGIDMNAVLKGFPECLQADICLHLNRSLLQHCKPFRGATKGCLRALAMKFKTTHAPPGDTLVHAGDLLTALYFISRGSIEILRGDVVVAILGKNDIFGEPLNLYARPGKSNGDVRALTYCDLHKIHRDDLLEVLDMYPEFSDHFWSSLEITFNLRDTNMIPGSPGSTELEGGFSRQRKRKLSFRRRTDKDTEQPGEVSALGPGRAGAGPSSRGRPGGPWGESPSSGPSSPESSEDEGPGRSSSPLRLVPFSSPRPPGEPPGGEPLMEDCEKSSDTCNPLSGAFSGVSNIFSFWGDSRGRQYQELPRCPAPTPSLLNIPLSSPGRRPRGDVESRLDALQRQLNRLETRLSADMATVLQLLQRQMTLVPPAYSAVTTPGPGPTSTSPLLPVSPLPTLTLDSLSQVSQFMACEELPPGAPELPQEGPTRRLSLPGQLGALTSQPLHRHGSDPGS

[10] = Activation of IRF-mediated immune response in human THP1-Dual KO-STING cells co-expressing ISRE reporter assessed as normalized luciferase gene expression by measuring relative luciferase units at 50 uM incubated for 24 hrs by QUANTI Luc based microplate reader method; format: functional
THP-1 [11] = assay: Upregulation of CXCL10 in human THP-1 cells at 100 nM measured after 6 to 18 hrs by RT-PCR analysis; format: functional, cell-based; conditions: time 6-18 hrs
RAW264.7 = assay: Activation of NF-kappaB mediated pro-inflammatory effector proteins in mouse RAW264.7 cells at 100 to 500 nM for incubated for 3 hrs by western blot analysis; format: cell-based; conditions: filed as activator, dose 100-500 nM
[12] = Solubility of the compound in DMSO at 50 to 100 uM incubated for 72 hrs; format: physicochemical; conditions: dose 50-100 µM
[13] = target: T1, Stimulator of interferon genes protein; assay: Activation of STING pathway in human THP1-cells assessed as increase in STING phosphorylation at 2 nM incubated for 6 hrs by Western blotting analysis; format: cell-based; conditions: THP-1, filed as activator
[14] = target: T1, Stimulator of interferon genes protein; assay: Activation of STING mediated immune response in human THP-1 cells assessed as induction of IP-10 secretion measured after 24 hrs by ELISA; format: cell-based; conditions: filed as activator, dose 0.41-100 nM, DDE = dose-dependent effect
[15] = target: Nuclear factor NF-kappa-B complex (Homo sapiens) (UniProt Q00653+P19838+Q04206); assay: Activation of NF-kappaB mediated pro-inflammatory effector proteins in human THP-1 cells at 2 to 10 nM incubated for 4 hrs by western blot analysis; format: cell-based; conditions: filed as activator, dose 2-10 nM
Sequence of Nuclear factor NF-kappa-B complex (Homo sapiens) (P19838 whole entry, looked up): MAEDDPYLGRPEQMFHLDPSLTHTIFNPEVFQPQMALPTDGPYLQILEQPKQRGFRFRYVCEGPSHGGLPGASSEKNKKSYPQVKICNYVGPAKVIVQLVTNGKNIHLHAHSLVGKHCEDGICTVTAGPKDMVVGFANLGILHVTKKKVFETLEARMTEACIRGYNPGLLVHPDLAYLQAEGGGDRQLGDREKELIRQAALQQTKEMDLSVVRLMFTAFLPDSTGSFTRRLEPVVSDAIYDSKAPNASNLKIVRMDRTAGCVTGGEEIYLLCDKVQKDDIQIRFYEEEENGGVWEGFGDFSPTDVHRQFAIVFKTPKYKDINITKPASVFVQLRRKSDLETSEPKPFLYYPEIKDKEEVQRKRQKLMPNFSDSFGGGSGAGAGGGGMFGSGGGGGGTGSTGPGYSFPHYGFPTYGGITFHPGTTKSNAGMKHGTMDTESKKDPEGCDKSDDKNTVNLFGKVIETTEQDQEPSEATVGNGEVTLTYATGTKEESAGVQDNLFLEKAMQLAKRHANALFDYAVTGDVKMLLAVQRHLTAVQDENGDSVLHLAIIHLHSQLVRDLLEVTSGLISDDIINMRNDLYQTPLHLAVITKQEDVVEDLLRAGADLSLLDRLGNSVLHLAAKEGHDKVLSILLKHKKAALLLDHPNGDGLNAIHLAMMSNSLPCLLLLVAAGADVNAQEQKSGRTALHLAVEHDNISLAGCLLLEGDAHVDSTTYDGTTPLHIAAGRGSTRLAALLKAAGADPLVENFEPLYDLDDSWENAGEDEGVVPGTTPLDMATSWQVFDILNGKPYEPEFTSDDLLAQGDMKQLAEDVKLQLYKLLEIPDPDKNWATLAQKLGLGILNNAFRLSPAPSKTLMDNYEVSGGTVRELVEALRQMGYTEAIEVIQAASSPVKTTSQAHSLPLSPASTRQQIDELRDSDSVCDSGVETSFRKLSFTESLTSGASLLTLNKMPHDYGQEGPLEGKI
Sequence of Nuclear factor NF-kappa-B complex (Homo sapiens) (Q00653 whole entry, looked up): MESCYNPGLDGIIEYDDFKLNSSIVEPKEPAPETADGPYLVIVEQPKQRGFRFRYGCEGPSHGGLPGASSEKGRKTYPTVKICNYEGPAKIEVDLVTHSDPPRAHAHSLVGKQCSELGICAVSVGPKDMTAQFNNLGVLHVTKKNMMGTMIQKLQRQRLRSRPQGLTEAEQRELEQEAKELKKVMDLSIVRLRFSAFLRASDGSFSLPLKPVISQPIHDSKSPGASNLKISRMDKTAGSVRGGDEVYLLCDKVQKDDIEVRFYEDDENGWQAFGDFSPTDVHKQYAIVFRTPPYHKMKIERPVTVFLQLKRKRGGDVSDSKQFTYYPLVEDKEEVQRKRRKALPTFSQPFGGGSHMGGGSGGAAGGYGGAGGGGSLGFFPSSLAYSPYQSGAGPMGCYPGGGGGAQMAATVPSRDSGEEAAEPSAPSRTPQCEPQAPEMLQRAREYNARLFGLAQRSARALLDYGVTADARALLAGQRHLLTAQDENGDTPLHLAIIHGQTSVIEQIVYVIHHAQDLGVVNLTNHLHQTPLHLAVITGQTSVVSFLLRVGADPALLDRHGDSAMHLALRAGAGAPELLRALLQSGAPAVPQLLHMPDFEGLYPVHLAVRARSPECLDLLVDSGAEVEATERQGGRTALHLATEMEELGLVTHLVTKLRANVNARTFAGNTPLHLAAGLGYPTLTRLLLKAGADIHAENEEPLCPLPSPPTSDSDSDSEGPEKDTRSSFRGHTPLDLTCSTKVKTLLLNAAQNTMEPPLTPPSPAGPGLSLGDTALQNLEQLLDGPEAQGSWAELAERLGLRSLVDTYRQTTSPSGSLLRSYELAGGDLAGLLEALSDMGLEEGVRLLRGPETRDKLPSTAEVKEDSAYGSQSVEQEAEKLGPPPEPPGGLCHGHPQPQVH
Sequence of Nuclear factor NF-kappa-B complex (Homo sapiens) (Q04206 whole entry, looked up): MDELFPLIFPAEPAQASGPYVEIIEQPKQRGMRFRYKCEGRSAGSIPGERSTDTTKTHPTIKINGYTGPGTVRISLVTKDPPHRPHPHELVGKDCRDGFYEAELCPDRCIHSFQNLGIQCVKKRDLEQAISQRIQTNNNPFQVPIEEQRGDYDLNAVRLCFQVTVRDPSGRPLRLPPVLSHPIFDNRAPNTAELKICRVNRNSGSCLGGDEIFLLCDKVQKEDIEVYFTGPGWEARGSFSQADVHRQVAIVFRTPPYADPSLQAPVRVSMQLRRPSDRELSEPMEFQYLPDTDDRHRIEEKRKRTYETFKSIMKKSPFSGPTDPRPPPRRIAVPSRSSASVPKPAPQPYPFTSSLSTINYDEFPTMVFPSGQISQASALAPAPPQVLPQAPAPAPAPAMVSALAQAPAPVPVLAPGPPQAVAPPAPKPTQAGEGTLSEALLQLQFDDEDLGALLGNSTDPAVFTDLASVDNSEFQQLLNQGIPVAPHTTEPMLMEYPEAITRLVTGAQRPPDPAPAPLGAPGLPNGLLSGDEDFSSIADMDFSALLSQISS

[16] = target: T2, Stimulator of interferon genes protein (Mus musculus) (UniProt Q3TBT3); assay: Activation of STING mediated immune response in mouse RAW264.7 cells assessed as induction of IP-10 secretion measured after 24 hrs by ELISA; format: cell-based; conditions: filed as activator, dose 0.32-5000 nM, DDE = dose-dependent effect
T2 sequence (whole entry): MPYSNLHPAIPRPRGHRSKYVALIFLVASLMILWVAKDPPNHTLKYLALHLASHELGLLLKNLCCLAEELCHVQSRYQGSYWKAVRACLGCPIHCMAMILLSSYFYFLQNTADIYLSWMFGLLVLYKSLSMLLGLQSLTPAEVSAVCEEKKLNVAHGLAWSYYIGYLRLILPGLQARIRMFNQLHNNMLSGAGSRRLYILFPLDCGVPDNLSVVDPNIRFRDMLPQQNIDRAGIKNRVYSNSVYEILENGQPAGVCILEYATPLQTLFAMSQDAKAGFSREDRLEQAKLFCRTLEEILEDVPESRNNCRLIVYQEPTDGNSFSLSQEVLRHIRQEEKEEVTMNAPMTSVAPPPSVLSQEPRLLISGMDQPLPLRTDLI

[17] = target: T2, Stimulator of interferon genes protein (Mus musculus); assay: Binding affinity to STING in mouse RAW264.7 assessed as thermal stabilization at 48 to 55 degC at 100 nM incubated for 4 hrs by western blotting based CETSA assay; format: cell-based; conditions: filed as activator
CT26 [18] = assay: Antitumor immunity activity against mouse CT26 cells xenografted in BALB/c mouse model assessed as tumor growth inhibition at 1.5 mg/kg, iv measured after 8 days; format: functional, organism-based; conditions: time 8.0 day
Cytochrome P450 2C19 = Cytochrome P450 2C19 (Homo sapiens, UniProt P33261); assay: Inhibition of CYP2C19 in human liver microsomes using S-mephenytoin as cocktail probe substrate preincubated for 5 mins followed by NADPH addition and measured after 30 mins by HPLC-MS/MS analysis; format: ADME, Microsome
Sequence of Cytochrome P450 2C19 (P33261 whole entry): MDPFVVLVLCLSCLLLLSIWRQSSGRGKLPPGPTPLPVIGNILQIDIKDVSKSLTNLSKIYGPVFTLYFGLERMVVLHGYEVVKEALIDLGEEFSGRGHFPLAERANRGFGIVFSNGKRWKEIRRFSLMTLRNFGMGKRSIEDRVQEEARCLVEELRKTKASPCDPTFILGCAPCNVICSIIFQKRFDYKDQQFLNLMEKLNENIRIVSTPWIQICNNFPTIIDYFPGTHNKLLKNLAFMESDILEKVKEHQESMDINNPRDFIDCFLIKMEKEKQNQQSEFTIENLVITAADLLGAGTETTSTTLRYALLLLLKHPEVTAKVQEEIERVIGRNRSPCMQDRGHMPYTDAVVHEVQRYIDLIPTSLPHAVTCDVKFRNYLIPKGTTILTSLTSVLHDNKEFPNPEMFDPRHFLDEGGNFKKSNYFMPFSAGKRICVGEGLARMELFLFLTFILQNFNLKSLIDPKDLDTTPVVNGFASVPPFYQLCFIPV

THP-1 [19] = assay: […] of IFNB in human THP-1 cells at 100 nM measured after 18 hrs by RT-PCR analysis; format: functional, cell-based
[20] = target: T1, Stimulator of interferon genes protein; conditions: THP1-Dual, filed as activator, dose 50.0 µM, time 24.0 hrs
THP-1 [21] = assay: Upregulation of IFITM1 in human THP-1 cells at 100 nM measured after 6 to 18 hrs by RT-PCR analysis; format: functional, cell-based; conditions: time 6-18 hrs
[22] = target: T1, Stimulator of interferon genes protein; assay: Activation of STING pathway in human THP1-cells assessed as increase in STAT1 phosphorylation at 2 nM incubated for 6 hrs by Western blotting analysis; format: cell-based; conditions: THP-1, filed as activator
THP-1 [23] = assay: Upregulation of ISG15 in human THP-1 cells at 100 nM measured after 6 to 18 hrs by RT-PCR analysis; format: functional, cell-based; conditions: time 6-18 hrs
[24] = target: T1, Stimulator of interferon genes protein; assay: Activation of STING pathway in human THP1-cells assessed as increase in IRF3 phosphorylation at 2 nM incubated 6 hrs by Western blotting analysis; format: cell-based; conditions: THP-1, filed as activator
[25] = Toxicity in BALB/c mouse xenografted with mouse CT26 cells assessed as effect on body weight at 1.5 mg/kg, iv measured after 8 days; format: organism-based; conditions: in vivo, 192 h, time 8 day

For `CCn1nc(C)cc1C(=O)Nc1nc2cc(C(N)=O)cc(OC)c2n1C/C=C/Cn1c(NC(=O)c2cc(C)nn2CC)nc2cc(C(N)=O)cc(OCCCNC(=O)OC(C)(C)C)c21`, the AUC(0-t) [1] was 4200 ng·h/mL, the Activity (Mus musculus [2]) was “Active” and the IC50 (Cytochrome P450 2C9) was greater than 100 µM. The Activity (Mus musculus [3]) was “Active”, the IC50 [4] was 62.3 pM and the IC50 (Cytochrome P450 2D6) was greater than 100 µM. For the same molecule, the half-life [5] was 10.5 h, the Activity [6] was “Active” and the inhibition in vivo at 1.5 mg/kg (CT26 [7]) was 57%. The Activity [8] was “Active”, the IC50 [9] was greater than 50 µM and the RLU [10] was 1.1. The Activity (THP-1 [11]) was “Active”, the Activity (RAW264.7) was “Active” and the solubility [12] was “Soluble”. For the same molecule, the Activity [13] was “Active”, the Activity [14] was “Dde” and the Activity [15] was “Active”. For the same molecule, the Activity [16] was “Dde”, the Activity [17] was “Active” and the Activity (CT26 [18]) was “Active”. The IC50 (Cytochrome P450 2C19) was greater than 100 µM, the Activity (THP-1 [19]) was “Active” and the RLU [20] was 102. For the same molecule, the Activity (THP-1 [21]) was “Active”, the Activity [22] was “Active” and the Activity (THP-1 [23]) was “Active”. For the same molecule, the Activity [24] was “Active” and the Activity [25] was “Non-Toxic”.
